Source: patent publication US20250019705A1, “PHARMACEUTICAL COMPOSITION FOR PREVENTING OR TREATING TARGET CANCER INCLUDING BRCA-SPECIFIC siRNA AS ACTIVE INGREDIENT” (KOREA INSTITUTE OF SCIENCE AND TECHNOLOGY, priority 2023, published 2025)

Assays:
Format in all cases: cell-based, mouse
[1] = tested on: BRCA1-deficient ID8 cells; experiment: PARP inhibitor IC50 analysis through MTS assay in BRCA1-deficient ID8 cells with BRCA2 knockdown; conditions: BRCA1-deficient ID8 cells with BRCA2 knocked down
Protocol: (§1) FIG. 9A, FIG. 9B, FIG. 9C, and FIG. 9D illustrate a result of treating ID8 cells incubated with vSIRPα-siBRCA with a PARP inhibitor (Olaparib or Talazoparib) and performing IC50 analysis through MTS assay.
(§2) Knockdown and knockout of BRCA genes were highly correlated with the efficacy of synthetic lethal cell death induction of the PARP inhibitor. Therefore, whether the PARP inhibitor, after silencing the expression of BRCA1/2, could induce apoptosis of tumor cells was required confirmation. BRCA1 and/or BRCA2 may be effectively knocked down by treating ID8 cells with the vSIRPα-siBRCA conjugates. Therefore ID8 cells were treated with the vSIRPα-siBRCA conjugates for 48 hours and then treated with Talazoparib at various concentrations for 72 hours.

ID8 cells = experiment: PARP inhibitor IC50 analysis through MTS assay in ID8 cells incubated with vSIRPα-siBRCA
Protocol: as §1, §2

phospho-H2AX (γH2AX) = experiment: DNA damage analysis by flow cytometry after PARP inhibitor in BRCA silenced cells; conditions: for γH2AX increase compared with control group: 0.01 μM Talazoparib
Protocol: The ID8 cells were dispensed in a 6-well plate at 2×10^5 cells/dish and incubated for 48 hours with PBS, vSIRPα-siBRCA1, vSIRPα-siBRCA2, and vSIRPα-siBRCA1/2. Subsequently, the cells were trypsinized and dispensed in a 6-well plate at 2×10^5 cells/dish, and treated with Olaparib or Talazoparib at a predetermined concentration for 24 to 48 hours.
Subsequently, the cells were detached with Trypsin-EDTA, blocked for 30 minutes using a PBS solution containing 1% FBS, and then a phospho-H2AX antibody was incubated for 2 hours. Thereafter, after PBS washing, flow cytometry was performed using a FACS device to measure phospho-H2AX antibody staining
To evaluate the level of PARP inhibitor-mediated DNA damage in BRCA gene-silenced cells, the expression levels of phospho-H2AX (γH2AX), a DNA damage marker, were measured by flow cytometry.
ID8 cells were treated with vSIRPα-siBRCA1 and vSIRPα-siBRCA2 alone or in combination, respectively, and after 48 hours, each cell type was treated with a PARP inhibitor, Talazoparib, and incubated for 48 hours.

[2] = BRCA1-knockdown (silenced) ID8 cells, vSIRPα-siBRCA 48 hours then PARP inhibitor 72 hours
[3] = BRCA1/2 silenced ID8 cells (vSIRPα-siBRCA1 and vSIRPα-BRCA2 together), 48 hours then PARP inhibitor 72 hours
[4] = BRCA2-knockdown (silenced) ID8 cells, vSIRPα-siBRCA 48 hours then PARP inhibitor 72 hours

With `Cn1ncnc1[C@H]1c2n[nH]c(=O)c3cc(F)cc(c23)N[C@@H]1c1ccc(F)cc1` [Talazoparib] the “fold reduction of IC50 of PARP inhibitor by BRCA2 knockdown” value [1] was “about 3.6 fold”, the “fold reduction of IC50 of PARP inhibitor vs BRCA normal-expressing (control) ID8 cells” value (ID8 cells; [2]) was 3.23 fold and the “fold reduction of IC50 of PARP inhibitor vs BRCA normal-expressing (control) ID8 cells” value (ID8 cells; [3]) was 28.11 fold. The “fold reduction of IC50 of PARP inhibitor vs BRCA normal-expressing (control) ID8 cells” value (ID8 cells; [4]) was 4.34 fold, the “γH2AX increase compared with control group” value (“γH2AX increase” for short) (phospho-H2AX (γH2AX); BRCA1/2 silenced ID8 cells (both conjugates 48 hours)) was roughly 3.06 fold and the “γH2AX increase” value (phospho-H2AX (γH2AX); BRCA1 silenced ID8 cells (vSIRPα-siBRCA1 48 hours)) was “about 1.32 fold”. For the same compound, the “γH2AX increase” value (phospho-H2AX (γH2AX); BRCA2 silenced ID8 cells (vSIRPα-siBRCA2 48 hours)) was roughly 2.16 fold and the “expression levels of γH2AX” value (phospho-H2AX (γH2AX); ID8-sgBRCA1/2 cells, Talazoparib 48 hours) was “significantly increased”.

For `O=C(c1cc(Cc2n[nH]c(=O)c3ccccc23)ccc1F)N1CCN(C(=O)C2CC2)CC1` [Olaparib], the “fold reduction of IC50 of PARP inhibitor vs BRCA normal-expressing (control) ID8 cells” value (ID8 cells; [2]) was “about 3.76 fold”, the “fold reduction of IC50 of PARP inhibitor vs BRCA normal-expressing (control) ID8 cells” value (ID8 cells; [3]) was “about 13.97 fold” and the “fold reduction of IC50 of PARP inhibitor vs BRCA normal-expressing (control) ID8 cells” value (ID8 cells; [4]) was “about 2.77 fold”.
